# Data from the supplement of paper PMC10307832.
# Assays:
# Assay in all cases: relative viability (nuclei count vs DMSO), 5 days (fraction); higher = more cells survive
# AGI-6780 = compound: O=C(Nc1cccc(C(F)(F)F)c1)Nc1cc(S(=O)(=O)NC2CC2)ccc1-c1ccsc1 [AGI-6780]
# Method in brief: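 Viability was read as treated-well nuclei divided by vehicle-well nuclei, using the median across plates. Lung cancer cell lines in 1536-well plates were kept overnight at 37 °C, pinned with five √10-spaced library-drug doses, and after 5 days were Hoechst-stained, imaged at 4× and counted in MetaXpress. Plates passed only with control CV below 25% and at least one doubling.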
# AGI-6780 + Trametinib = compound: O=C(Nc1cccc(C(F)(F)F)c1)Nc1cc(S(=O)(=O)NC2CC2)ccc1-c1ccsc1 [AGI-6780] + CC(=O)Nc1cccc(-n2c(=O)n(C3CC3)c(=O)c3c(Nc4ccc(I)cc4F)n(C)c(=O)c(C)c32)c1 [Trametinib] (partner 0.02 µM)
# Method in brief: (§1)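 Relative viability divides the nuclei count in treated wells by that in vehicle wells. Lung cancer cell lines were seeded in 1536-well plates, dosed by pin tool the next day, and fixed and stained after 5 days in one step with final 0.05% Triton X-100, 1% formaldehyde and 1 ug/ml Hoechst. Dosing was a single drug or a fixed anchor-drug dose plus five library-drug doses (not always all listed) in √10 steps, and values are medians of duplicate plates imaged at 4×.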
# AGI-6780 + OSI-027 = compound: O=C(Nc1cccc(C(F)(F)F)c1)Nc1cc(S(=O)(=O)NC2CC2)ccc1-c1ccsc1 [AGI-6780] + COc1cccc2cc(-c3nc([C@H]4CC[C@H](C(=O)O)CC4)n4ncnc(N)c34)[nH]c12 [OSI-027] (partner 0.5 µM)
# Method in brief: as §1
# AGI-6780 + Phenformin = compound: O=C(Nc1cccc(C(F)(F)F)c1)Nc1cc(S(=O)(=O)NC2CC2)ccc1-c1ccsc1 [AGI-6780] + N=C(N)NC(=N)NCCc1ccccc1 [Phenformin] (partner 250 µM)
# Method in brief: as §1
Cell Line,relative viability (AGI-6780; 0.08 µM),relative viability (AGI-6780; 0.253 µM),relative viability (AGI-6780; 0.8 µM),relative viability (AGI-6780; 2.53 µM),relative viability (AGI-6780; 8 µM),relative viability (AGI-6780 + Trametinib; first compound 0.08 µM),relative viability (AGI-6780 + Trametinib; first compound 0.253 µM),relative viability (AGI-6780 + Trametinib; first compound 0.8 µM),relative viability (AGI-6780 + Trametinib; first compound 2.53 µM),relative viability (AGI-6780 + Trametinib; first compound 8 µM),relative viability (AGI-6780 + OSI-027; first compound 0.08 µM),relative viability (AGI-6780 + OSI-027; first compound 0.253 µM),relative viability (AGI-6780 + OSI-027; first compound 0.8 µM),relative viability (AGI-6780 + OSI-027; first compound 2.53 µM),relative viability (AGI-6780 + OSI-027; first compound 8 µM),relative viability (AGI-6780 + Phenformin; first compound 0.08 µM),relative viability (AGI-6780 + Phenformin; first compound 0.253 µM),relative viability (AGI-6780 + Phenformin; first compound 0.8 µM),relative viability (AGI-6780 + Phenformin; first compound 2.53 µM),relative viability (AGI-6780 + Phenformin; first compound 8 µM)
NCI-H2126,1.06,1.07,0.981,0.796,1.08,0.613,0.601,0.507,0.479,0.566,0.711,0.88,0.742,0.618,0.815,0.543,0.568,0.539,0.526,0.539
NCI-H2170,0.988,1,0.909,–,0.975,1.03,0.881,0.997,–,0.863,0.694,0.762,0.768,0.596,0.733,0.413,0.459,0.631,0.422,0.403
NCI-H2228,0.972,1.08,0.913,0.846,1.15,0.447,0.508,0.505,0.307,0.607,0.617,0.589,0.488,0.367,0.685,0.341,0.278,0.31,0.347,0.393
NCI-H2342,0.984,1.01,1.15,0.848,1.2,0.866,0.72,0.772,0.723,0.981,0.63,0.721,0.58,0.57,0.662,0.572,0.759,0.636,0.53,0.793
NCI-H2347,1.07,1.02,0.743,1.06,1.07,0.276,0.289,0.278,0.287,0.274,0.403,0.491,0.333,0.378,0.507,0.424,0.574,0.378,0.351,0.373
NCI-H2405,0.995,1,0.842,0.923,1.01,–,0.649,0.57,0.492,0.583,0.671,0.651,0.525,0.549,0.596,0.431,0.381,0.279,0.339,0.382
NCI-H3122,1,1.03,1.04,1.02,1.07,0.212,0.261,0.239,0.208,0.329,0.998,0.913,1.08,0.727,1.01,0.326,0.378,0.421,0.399,0.36
PC-3 [JPC-3],0.982,1.04,1.08,1.08,0.962,–,0.582,0.701,0.744,0.626,0.776,0.748,0.781,0.691,0.76,0.51,0.483,0.479,0.502,0.496
PC-14,1.02,1.01,1.05,1.02,1.04,0.802,0.764,1.02,0.731,0.752,0.833,0.822,0.814,0.678,0.922,0.464,0.665,0.576,0.581,0.695
RERF-LC-KJ,1.05,1.06,0.977,0.798,0.951,0.859,0.862,0.828,0.674,0.774,0.579,0.719,0.614,0.465,0.454,0.421,0.455,0.439,0.367,0.411
SK-LU-1,1.05,1.04,0.777,0.945,1.19,0.614,0.537,0.368,0.651,0.497,0.348,0.406,–,0.312,0.359,0.549,0.555,–,0.404,0.588
SK-MES-1,1.04,1.03,0.99,0.958,0.99,0.549,0.577,0.509,0.532,0.493,0.635,0.662,0.561,0.448,0.509,0.689,0.647,0.623,0.665,0.683
SW 1573,1.03,1.02,1.04,0.739,0.957,0.567,0.533,0.489,–,0.602,0.685,0.656,0.801,–,0.562,0.378,0.36,0.567,–,0.368
UMC-11,0.95,0.955,1.2,–,1.13,0.657,0.708,0.812,–,0.902,0.488,0.452,0.473,–,0.509,0.336,0.344,0.336,–,0.365
